For assay [1], the target named is Somatostatin receptor type 5 (Homo sapiens, UniProt P35346). The experiment in a line: Binding affinity towards human Somatostatin receptor type 5 using 125I-[Leu,DTrp,Tyr]SRIF-28 as radioligand.
The target in assay [2] is Somatostatin receptor type 1 (Homo sapiens, UniProt P30872). The assay can be described thus: Binding affinity towards human Somatostatin receptor type 1 using 125I-[Leu,DTrp,Tyr]SRIF-28 as radioligand.
Assay [3] addresses Somatostatin receptor type 4 (Homo sapiens, UniProt P31391). The experiment in a line: Binding affinity towards human Somatostatin receptor type 4 using 125I-[Leu,DTrp,Tyr]SRIF-28 as radioligand.
The target of assay [4] is Somatostatin receptor type 2 (Homo sapiens, UniProt P30874). The assay can be described thus: Binding affinity towards human Somatostatin receptor type 2 using 125I-[Leu,DTrp,Tyr]SRIF-28 as radioligand.
Sequence of Somatostatin receptor type 2 (P30874 whole entry): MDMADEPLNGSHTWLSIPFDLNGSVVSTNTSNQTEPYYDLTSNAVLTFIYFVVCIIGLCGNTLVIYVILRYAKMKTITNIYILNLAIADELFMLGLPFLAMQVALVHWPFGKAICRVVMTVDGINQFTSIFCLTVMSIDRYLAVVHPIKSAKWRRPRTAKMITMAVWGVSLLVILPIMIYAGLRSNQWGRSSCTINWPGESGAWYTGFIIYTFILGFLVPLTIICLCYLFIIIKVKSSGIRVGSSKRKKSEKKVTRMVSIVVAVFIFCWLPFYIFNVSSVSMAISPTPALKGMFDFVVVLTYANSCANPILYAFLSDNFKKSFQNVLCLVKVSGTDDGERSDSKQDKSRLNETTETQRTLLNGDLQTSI
Assay [5] deals with Somatostatin receptor type 3 (Homo sapiens, UniProt P32745). The experiment in a line: Binding affinity towards human Somatostatin receptor type 3 using 125I-[Leu,DTrp,Tyr]SRIF-28 as radioligand.
Sequence of Somatostatin receptor type 3 (P32745 whole entry): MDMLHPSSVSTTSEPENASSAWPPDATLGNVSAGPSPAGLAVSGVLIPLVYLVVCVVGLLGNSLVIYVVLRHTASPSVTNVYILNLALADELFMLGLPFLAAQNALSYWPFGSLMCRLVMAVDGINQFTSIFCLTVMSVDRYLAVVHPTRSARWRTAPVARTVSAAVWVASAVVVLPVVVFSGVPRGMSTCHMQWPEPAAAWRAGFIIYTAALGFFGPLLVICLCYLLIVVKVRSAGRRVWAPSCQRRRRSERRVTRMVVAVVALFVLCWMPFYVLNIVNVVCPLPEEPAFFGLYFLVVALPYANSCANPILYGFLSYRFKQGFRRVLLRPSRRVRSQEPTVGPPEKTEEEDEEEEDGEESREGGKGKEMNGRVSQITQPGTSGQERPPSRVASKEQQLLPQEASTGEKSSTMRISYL

SMILES strings stand for the structures. Where a SMILES comes first, the peptide text is derived from it. Bridges are numbered along the chain shown (N, C = ends). [ ]: non-standard residue; d: D form.

Sequence of Somatostatin receptor type 4 (P31391 whole entry): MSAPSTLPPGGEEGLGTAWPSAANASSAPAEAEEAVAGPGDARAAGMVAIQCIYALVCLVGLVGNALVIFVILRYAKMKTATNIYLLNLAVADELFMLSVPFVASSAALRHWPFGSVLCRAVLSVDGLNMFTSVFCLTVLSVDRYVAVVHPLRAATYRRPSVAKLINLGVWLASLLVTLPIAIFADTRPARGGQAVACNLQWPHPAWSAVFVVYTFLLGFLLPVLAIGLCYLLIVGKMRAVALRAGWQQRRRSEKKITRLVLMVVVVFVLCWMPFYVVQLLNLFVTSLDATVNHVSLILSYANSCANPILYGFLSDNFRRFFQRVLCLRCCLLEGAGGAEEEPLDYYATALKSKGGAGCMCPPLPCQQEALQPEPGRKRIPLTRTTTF
Sequence of Somatostatin receptor type 1 (P30872 whole entry): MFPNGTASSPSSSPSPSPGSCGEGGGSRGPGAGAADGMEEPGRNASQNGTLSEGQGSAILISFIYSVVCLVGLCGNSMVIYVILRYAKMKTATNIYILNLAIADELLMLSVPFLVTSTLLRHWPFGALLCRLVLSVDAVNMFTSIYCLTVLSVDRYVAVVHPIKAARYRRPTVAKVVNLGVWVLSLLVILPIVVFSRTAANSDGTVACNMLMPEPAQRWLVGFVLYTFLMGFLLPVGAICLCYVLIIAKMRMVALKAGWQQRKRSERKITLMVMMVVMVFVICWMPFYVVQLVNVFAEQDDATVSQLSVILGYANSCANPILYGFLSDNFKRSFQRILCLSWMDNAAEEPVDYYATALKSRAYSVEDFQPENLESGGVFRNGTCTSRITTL
Sequence of Somatostatin receptor type 5 (P35346 whole entry): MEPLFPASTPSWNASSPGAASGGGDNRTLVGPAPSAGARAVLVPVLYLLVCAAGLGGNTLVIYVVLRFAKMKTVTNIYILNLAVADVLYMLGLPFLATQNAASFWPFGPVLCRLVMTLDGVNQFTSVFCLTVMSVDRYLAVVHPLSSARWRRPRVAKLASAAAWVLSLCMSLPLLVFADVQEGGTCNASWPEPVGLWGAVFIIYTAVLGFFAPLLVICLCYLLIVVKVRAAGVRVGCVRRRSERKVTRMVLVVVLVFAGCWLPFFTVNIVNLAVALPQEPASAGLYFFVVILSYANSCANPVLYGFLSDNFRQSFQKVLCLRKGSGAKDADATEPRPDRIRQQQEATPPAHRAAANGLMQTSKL

With `C[C@@H](O)[C@@H]1NC(=O)[C@H](CCCCN)NC(=O)[C@H](Cc2c[nH]c3ccccc23)NC(=O)[C@H](Cc2ccccc2)NC(=O)[C@H](Cc2ccccc2)NC(=O)[C@@H](N)CSSC[C@@H](C(=O)O)NC(=O)[C@H](Cc2ccccc2)NC1=O` (H-CFFWKTFC-OH; disulfide 1-8), the IC50 – broadly, the midpoint of a concentration-inhibition curve – in assay [1] came to 46 nM; in assay [2] it was 27 nM; in assay [3], 1.8 nM; in assay [4], 41 nM.

Take `C[C@@H](O)[C@@H]1NC(=O)[C@H](CCCCN)NC(=O)[C@@H](Cc2c[nH]c3ccccc23)NC(=O)[C@H](Cc2ccccc2)NC(=O)[C@H](Cc2ccccc2)NC(=O)[C@@H](N)CSSC[C@@H](C(=O)O)NC(=O)[C@@H](N(C)C(=O)c2ccccc2)NC1=O`: the IC50 in assay [5] was over 1000 nM; in assay [1], over 1000 nM; in assay [2], over 10000 nM; in assay [3], 80 nM; in assay [4], over 1000 nM.

Regarding `C[C@@H](O)[C@@H]1NC(=O)[C@H](CCCCN)NC(=O)[C@@H](Cc2c[nH]c3ccccc23)NC(=O)[C@H](Cc2ccccc2)NC(=O)[C@H](Cc2ccccc2)NC(=O)[C@@H](N)CSSC[C@@H](C(=O)O)NC(=O)[C@H](Cc2ccccc2)NC1=O` (H-CFF[dW]KTFC-OH; disulfide 1-8), the IC50 in assay [1] was 14 nM; in assay [2], 5.3 nM; in assay [3], 0.7 nM; in assay [4], 130 nM.

For `C[C@@H](O)[C@@H]1NC(=O)[C@@H](N(C)C(=O)CCN)NC(=O)[C@@H](Cc2c[nH]c3ccccc23)NC(=O)[C@H](Cc2ccccc2)NC(=O)[C@H](Cc2ccccc2)NC(=O)[C@@H](N)CSSC[C@@H](C(=O)O)NC(=O)[C@H](Cc2ccccc2)NC1=O`, the IC50 in assay [5] is over 1000 nM; in assay [1] it was over 1000 nM; in assay [2], over 10000 nM; in assay [3], 429 nM; in assay [4], over 10000 nM.

Regarding `COC(=O)[C@H](CCCN=C(N)N)NC(=O)CCCc1c(-c2ccccc2)[nH]c2c(F)cc(F)cc12`, the IC50 in assay [5] was over 1000 nM; in assay [1], over 10000 nM; in assay [2], over 1000 nM; in assay [4], over 1000 nM.

As to `C[C@@H](O)[C@@H]1NC(=O)[C@@H](NC(=O)CCN)NC(=O)[C@@H](Cc2c[nH]c3ccccc23)NC(=O)[C@H](Cc2ccccc2)NC(=O)[C@H](Cc2ccccc2)NC(=O)[C@@H](N)CSSC[C@@H](C(=O)O)NC(=O)[C@H](Cc2ccccc2)NC1=O` (stereo in doubt; 16), the IC50 in assay [5] is over 1000 nM; in assay [1], over 10000 nM; in assay [2], over 10000 nM; in assay [3], over 10000 nM; in assay [4], over 1000 nM.

As to `C[C@@H](O)[C@@H]1NC(=O)[C@H](CCCCN)NC(=O)[C@H](Cc2c[nH]c3ccccc23)NC(=O)[C@H](N(C)C(=O)c2ccccc2)NC(=O)[C@H](Cc2ccccc2)NC(=O)[C@@H](N)CSSC[C@@H](C(=O)O)NC(=O)[C@H](Cc2ccccc2)NC1=O`, the IC50 was 403 nM in assay [5]; over 1000 nM in assay [1]; over 10000 nM in assay [2]; 5.4 nM in assay [3]; over 1000 nM in assay [4].

Turning to `C[C@@H](O)[C@@H]1NC(=O)[C@H](CCCCN)NC(=O)[C@@H](Cc2c[nH]c3ccccc23)NC(=O)[C@H](Cc2ccccc2)NC(=O)[C@H](N(C)C(=O)c2ccccc2)NC(=O)[C@@H](N)CSSC[C@@H](C(=O)O)NC(=O)[C@H](Cc2ccccc2)NC1=O` (stereo in doubt; 5), the IC50 is over 10000 nM in assay [2], over 1000 nM in assay [3] and over 1000 nM in assay [4].

For `C[C@@H](O)[C@@H]1NC(=O)[C@H](CCCCN)NC(=O)[C@@H](Cc2c[nH]c3ccccc23)NC(=O)[C@H](N(C)C(=O)c2ccccc2)NC(=O)[C@H](Cc2ccccc2)NC(=O)[C@H](N)CSSC[C@@H](C(=O)O)NC(=O)[C@H](Cc2ccccc2)NC1=O` (stereo in doubt; 8), the IC50 in assay [5] worked out at 447 nM; in assay [1], 768 nM; in assay [3], 5.2 nM; in assay [4], 460 nM.

`CN(C(=O)CO)[C@H]1NC(=O)[C@H](CCCCN)NC(=O)[C@@H](Cc2c[nH]c3ccccc23)NC(=O)[C@H](Cc2ccccc2)NC(=O)[C@H](Cc2ccccc2)NC(=O)[C@@H](N)CSSC[C@@H](C(=O)O)NC(=O)[C@H](Cc2ccccc2)NC1=O` (stereo in doubt; 20): the IC50 is over 1000 nM in assay [5]; 211 nM in assay [1]; 45 nM in assay [2]; 6.5 nM in assay [3]; over 1000 nM in assay [4].

For `C[C@@H](O)[C@@H]1NC(=O)[C@H](CCCCN)NC(=O)[C@@H](Cc2c[nH]c3ccccc23)NC(=O)[C@H](N(C)C(=O)c2ccccc2)NC(=O)[C@H](Cc2ccccc2)NC(=O)[C@H](N)CSSC[C@@H](C(=O)O)NC(=O)[C@H](Cc2ccccc2)NC1=O` (stereo in doubt; 11), the IC50 in assay [5] is 136 nM; in assay [3], 31 nM.

Consider `CN(C(=O)CO)[C@H]1NC(=O)[C@H](CCCCN)NC(=O)[C@@H](Cc2c[nH]c3ccccc23)NC(=O)[C@H](Cc2ccccc2)NC(=O)[C@H](Cc2ccccc2)NC(=O)[C@@H](N)CSSC[C@@H](C(=O)O)NC(=O)[C@H](Cc2ccccc2)NC1=O` (stereo in doubt; 21), for which the IC50 was over 1000 nM in assay [5]; 389 nM in assay [1]; 860 nM in assay [2]; 38 nM in assay [3]; over 1000 nM in assay [4].

For the molecule `C[C@@H](O)[C@@H]1NC(=O)[C@H](CCCCN)NC(=O)[C@@H](Cc2c[nH]c3ccccc23)NC(=O)[C@H](N(C)C(=O)c2ccccc2)NC(=O)[C@H](Cc2ccccc2)NC(=O)[C@H](N)CSSC[C@@H](C(=O)O)NC(=O)[C@H](Cc2ccccc2)NC1=O` (stereo in doubt; 7), the concentration for half-maximal inhibition (IC50) was 725 nM in assay [5]; over 1000 nM in assay [1]; over 10000 nM in assay [2]; 133 nM in assay [3]; over 1000 nM in assay [4].

For `C[C@@H](O)[C@@H]1NC(=O)[C@H](CCCCN)NC(=O)[C@@H](Cc2c[nH]c3ccccc23)NC(=O)[C@H](N(C)C(=O)c2ccccc2)NC(=O)[C@H](Cc2ccccc2)NC(=O)[C@H](N)CSSC[C@@H](C(=O)O)NC(=O)[C@H](Cc2ccccc2)NC1=O` (stereo in doubt; 10), the IC50 was 382 nM in assay [5]; 460 nM in assay [1]; over 1000 nM in assay [2]; 3.4 nM in assay [3]; 533 nM in assay [4].

In the case of `C[C@@H](O)[C@@H]1NC(=O)[C@H](CCCCN)NC(=O)[C@@H](Cc2c[nH]c3ccccc23)NC(=O)[C@H](Cc2ccccc2)NC(=O)[C@H](N(C)C(=O)c2ccccc2)NC(=O)[C@@H](N)CSSC[C@@H](C(=O)O)NC(=O)[C@H](Cc2ccccc2)NC1=O` (stereo in doubt; 4), the IC50 in assay [5] was over 10000 nM; in assay [1], over 1000 nM; in assay [2], 667 nM; in assay [3], 14 nM; in assay [4], 374 nM.

Regarding `C[C@@H](O)[C@@H]1NC(=O)[C@@H](NC(=O)CCN)NC(=O)[C@@H](Cc2c[nH]c3ccccc23)NC(=O)[C@H](Cc2ccccc2)NC(=O)[C@H](Cc2ccccc2)NC(=O)[C@@H](N)CSSC[C@@H](C(=O)O)NC(=O)[C@H](Cc2ccccc2)NC1=O` (stereo in doubt; 17), the IC50 in assay [5] was over 1000 nM; in assay [1], over 10000 nM; in assay [2], over 10000 nM; in assay [3], over 1000 nM; in assay [4] it was over 1000 nM.

In the case of `C[C@@H](O)[C@@H]1NC(=O)[C@H](CCCCN)NC(=O)[C@@H](Cc2c[nH]c3ccccc23)NC(=O)[C@H](Cc2ccccc2)NC(=O)[C@H](Cc2ccccc2)NC(=O)[C@@H](N)CSSC[C@@H](C(=O)O)NC(=O)[C@H](N(C)C(=O)c2ccccc2)NC1=O`, the IC50 in assay [5] was 235 nM; in assay [1], 220 nM; in assay [2], over 10000 nM; in assay [3], 6.9 nM; in assay [4] it was 455 nM.

Turning to `C[C@@H](O)[C@@H]1NC(=O)[C@H](CCCCN)NC(=O)[C@@H](Cc2c[nH]c3ccccc23)NC(=O)[C@H](N(C)C(=O)c2ccccc2)NC(=O)[C@H](Cc2ccccc2)NC(=O)[C@H](N)CSSC[C@@H](C(=O)O)NC(=O)[C@H](Cc2ccccc2)NC1=O` (stereo in doubt; 9), the figures for the IC50 in assay [5] and in assay [3] were over 1000 nM and 153 nM, respectively.

Consider `C[C@@H](O)[C@@H]1NC(=O)[C@H](N(C)C(=O)CCN)NC(=O)[C@@H](Cc2c[nH]c3ccccc23)NC(=O)[C@H](Cc2ccccc2)NC(=O)[C@H](Cc2ccccc2)NC(=O)[C@@H](N)CSSC[C@@H](C(=O)O)NC(=O)[C@H](Cc2ccccc2)NC1=O`, for which the 50% inhibitory concentration (IC50) in assay [5], in assay [1], in assay [2], in assay [3] and in assay [4] was over 1000 nM throughout.

The values above are taken from ChEMBL document CHEMBL1145933, “Novel sst(4)-selective somatostatin (SRIF) agonists. 1. Lead identification using a betide scan” (J Med Chem, 2003).
